Reference: patent US6166209A, “Piperidine derivatives” (Hoffmann-La Roche Inc., priority 1997, dated 2000)
Structures can show the parent of a compound that is named as a salt.

Assays:
[1] = target: T1, OFQ receptor (rat, LC132) (Rattus norvegicus, UniProt P35370); assay: OFQ-R binding assay: [3H]-OFQ competition on membranes of 293s-OFQ-R cells; details: Ki from IC50 by Cheng and Prusoff, at least 6 concentrations in triplicate, determined twice, read-out: OFQ pKi (converted)
T1 construct: expressed in transfected cells; host or cells: HEK-293 cells adapted to suspension growth (293s), vector pCEP4; total membrane fraction of 293s-OFQ-R cells
Method: Methods of OFQ-R Binding Assay
HEK-293 cells adapted to suspension growth (293s) were cultured in HL medium plus 2% FBS. The cells were transfected with the rat OFQ receptor cDNA (LC132), FEBS Lett. 347, 284-288, 1994, cloned in the expression vector pCEP4 (Invitrogen, San Diego, Calif., USA) using lipofectin (Life Technologies, Bethesda, Md., USA). Transfected cells were selected in the presence of hygromycin (1000 U/ml) (Calbiochem, San Diego, Calif., USA). A pool of resistant cells was tested for OFQ-R expression by binding of [^3 H]-OFQ (Amersham PLC, Buckinghamshire, England). These cells (293s-OFQ-R) were expanded for large scale culture and membrane preparation.
293s-OFQ-R cells were harvested by centrifugation, washed 3 times with phosphate buffered saline (PBS) before resuspension in buffer A (50 mM Tris-HCl, pH 7.8, 5 mM MgCl2, 1 mM EGTA) and disruption with a tissue homogenizer (30 seconds, setting 4, Pt 20, Kinematica, Kriens-Lucern, Switzerland). A total membrane fraction was obtained by centrifugation at 49,000×g at 4° C. This procedure was repeated twice and the pellet was resuspended in buffer A. Aliquots were stored at -70° C. and protein concentrations were determined using the BCA™ Protein Assay Reagent (Pierce, Rockford, Ill.) following the manufacturer's recommendations.
[^3 H]-OFQ competition studies were carried out with 77 μg membrane protein in a final assay volume of 0.5 ml buffer A plus 0.1% BSA and 0.01% bacitracin (Boehringer-Mannheim, Mannheim, Germany) for one hour at room temperature. 50 nM unlabeled OFQ was used to define the non-specific binding. […] The retained radioactivity was counted on a Packard Top-Count microplate scintillation counter after addition of 40 μl of Microscint 40 (Canberra Packard). The effects of compounds were determined using at least 6 concentrations in triplicate, and determined twice. IC50 values were determined by curve fitting and these calues were converted to Ki values by the method of Cheng and Prusoff, Biochem. Pharmacol., 22, 3099, 1973.

[2] = tested on: OFQ-R; details: both in vitro and in vivo; cited from earlier work
[3] = tested on: adenylate cyclase in CHO(LC 132^+) cells; details: CHO(LC 132+) cells in culture; cited from earlier work
[4] = tested on: mice; details: intra-cerebroventricular; cited from earlier work
[5] = tested on: mice; details: intra-cerebroventricular; cited from earlier work; remark: listed apart in the source

T1 sequence (P35370 whole entry): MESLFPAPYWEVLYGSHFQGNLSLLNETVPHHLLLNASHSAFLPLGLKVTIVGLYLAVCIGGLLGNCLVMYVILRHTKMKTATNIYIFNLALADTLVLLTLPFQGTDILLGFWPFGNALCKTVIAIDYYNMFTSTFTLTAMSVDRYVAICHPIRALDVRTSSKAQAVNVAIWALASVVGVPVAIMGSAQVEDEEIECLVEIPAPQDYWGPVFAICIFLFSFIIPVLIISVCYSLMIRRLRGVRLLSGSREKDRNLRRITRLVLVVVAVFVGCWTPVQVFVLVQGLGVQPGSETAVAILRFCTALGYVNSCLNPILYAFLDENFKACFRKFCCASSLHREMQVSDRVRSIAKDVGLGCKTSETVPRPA

Compound | Ki [1] [nM] | agonistic activity at the OFQ-R [2] | inhibition of adenylate cyclase [3] | hyperalgesia [4] | locomotive activity [5]
c1ccc2c(c1)CCCCC2NCCN1CCC2(CC1)OCc1ccccc12 (stereo not shown) [B/5, [2-(3H-Spiro[isobenzofuran-1,4'-piperidin]-1'yl)-ethyl]-(5,6,7,8-tetrahydro-4H-benzocyclohepten-4-yl)-amine hydrochloride (1:2)] | 100 |  |  |  | 
O=C1OC2(CCN(CCNC3c4ccccc4CCc4ccccc43)CC2)c2ccccc21 [A/1, 1'-[2-(10,11-Dihydro-5H-dibenzo[a,d]cyclohepten-5-ylamino)-ethyl]-spiro[isobenzofuran-1,4'-piperidin]-3-one methansulfonate (1:2)] | 50.1 |  |  |  | 
c1ccc(C(OCCN2CCC3(CC2)OCc2ccccc23)c2ccccc2)cc1 [Example C, 1'-(2Benzhydryloxy-ethyl)-3H-spiro[isobenzofuran-1,4'-piperidine]hydrochloride (1:1)] | 12.6 |  |  |  | 
F-G-G-F-T-G-A-R-K-S-A-R-K-L-A-N-Q (FGGFTGARKSARKLANQ) [OFQ, seventeen amino-acid-long peptide isolated from rat brain, natural ligand for a G-protein coupled receptor (OFQ-R)] |  | exhibits agonistic activity | inhibits adenylate cyclase | induces hyperalgesia | slows down locomotive activity
